Patent US8053581B2, “Trisubstituted thiazole compounds, preparations methods, pharmaceutical compositions and medicals uses thereof” (Institute of Pharmacology and Toxicology Academy of …, priority 2006, dated 2011)
pIC50, pKi: −log10 of the molar value.

Key:
PLTP [1] = biological target: T1, PLTP (Homo sapiens, UniProt P55058); assay: Determination of PLTP inhibition activity (radiolabelled phospholipid liposome to HDL transfer with plasma); type: biochemical; conditions: for inhibition at 250 µM: Concentration of compounds 250 μM; for inhibition at 250 µM / inhibition at 150 µM / inhibition at 500 µM: read-out: PLTP inhibition activity Inhibition rate(%); for inhibition at 150 µM: Concentration of compounds 150 μM; for inhibition at 500 µM: Concentration of compounds 500 μM
T1 construct: from tissue
T1 sequence (P55058 18-493, species assumed): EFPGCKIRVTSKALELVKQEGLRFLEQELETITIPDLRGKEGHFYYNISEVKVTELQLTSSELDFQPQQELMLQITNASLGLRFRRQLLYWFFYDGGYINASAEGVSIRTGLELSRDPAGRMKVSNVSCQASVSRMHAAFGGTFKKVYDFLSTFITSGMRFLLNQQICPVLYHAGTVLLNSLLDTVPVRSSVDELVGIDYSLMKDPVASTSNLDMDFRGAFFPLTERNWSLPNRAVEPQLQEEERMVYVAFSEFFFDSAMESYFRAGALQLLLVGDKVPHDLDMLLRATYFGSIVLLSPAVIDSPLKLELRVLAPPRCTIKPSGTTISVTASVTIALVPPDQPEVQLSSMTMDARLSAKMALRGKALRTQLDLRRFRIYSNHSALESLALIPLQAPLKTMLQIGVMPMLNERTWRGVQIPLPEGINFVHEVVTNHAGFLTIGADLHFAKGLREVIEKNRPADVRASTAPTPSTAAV
Experimental: 30 μl (about 1000 cpm/μl) phospholipids liposome, 30 μl HDL ([…]), 337 μl TSE and 3 μl plasma were mixed, incubated in 37° C. water-bath for 1 hour, and then added 300 μl of a settling solution (50 ml solution preparation: 5.36 ml 5N NaCl, 9.075 ml 2M MnCl2 and 46 mg liver phospholipid were mixed, added water to 50 ml), the solution was stood at room temperature for 10 minutes, rotated at high speed for 10 minutes (to remove phospholipids liposome), 500 μl of the supernatant was sampled and counted. PLTP activity (cpm/h/3 μl)=sample cpm-background cpm.

CETP [2] = biological target: T2, CETP (Homo sapiens, UniProt P11597); assay: Determination of CETP inhibition activity (fluorescent donor/acceptor transfer); type: biochemical; conditions: for inhibition at 500 µM: Concentration of compounds 500 μM, read-out: CETP inhibition activity Inhibition rate(%)
T2 sequence (P11597 18-493): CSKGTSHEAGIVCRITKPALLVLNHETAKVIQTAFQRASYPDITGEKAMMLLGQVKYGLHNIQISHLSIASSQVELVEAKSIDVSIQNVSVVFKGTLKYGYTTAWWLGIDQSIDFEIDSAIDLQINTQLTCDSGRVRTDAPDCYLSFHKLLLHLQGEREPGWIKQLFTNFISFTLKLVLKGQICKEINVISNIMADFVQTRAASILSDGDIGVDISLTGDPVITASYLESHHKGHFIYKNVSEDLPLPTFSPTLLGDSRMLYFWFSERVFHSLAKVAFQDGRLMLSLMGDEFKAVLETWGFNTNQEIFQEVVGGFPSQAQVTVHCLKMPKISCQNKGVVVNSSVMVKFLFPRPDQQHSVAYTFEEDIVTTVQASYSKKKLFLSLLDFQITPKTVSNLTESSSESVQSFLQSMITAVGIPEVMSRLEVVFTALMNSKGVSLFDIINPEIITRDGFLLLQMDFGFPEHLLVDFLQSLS
Experimental: A mixture containing 3 μl of a donor, 9 μl of an acceptor (250 μg protein), 3 μl of CETP solution and 85 μl of an analytic buffer, 10 mM Tris, 0.15 M NaCl and 2 mM EDTA, pH 7.4 was incubated at 37° C. for 0.5 hours, the fluorescence intensity was determined on Victor 3 double illuminometer/fluorescence counter (Perkin Elmer) carrying […] light wave length.

PLTP [3] = biological target: T1, PLTP; conditions: reported in WO 2002068450; read-out: Ki value to inhibit PLTP; cited from earlier work
CETP [4] = biological target: T2, CETP; conditions: reported in WO 2002068450; read-out: Ki value to inhibit CETP; cited from earlier work

Row | Compound | inhibition at 250 µM (PLTP [1]) [%] | melting point [°C] | inhibition at 500 µM (CETP [2]) [%] | inhibition at 150 µM (PLTP [1]) [%] | pIC50 (PLTP [1]) | inhibition at 500 µM (PLTP [1]) [%] | pIC50 (CETP [2]) | pKi (PLTP [3]) | pKi (CETP [4])
1 | COc1ccc(-c2nc(N)sc2CCc2ccccc2)cc1 [Example 57, 4-(4-methoxy-phenyl)-5-phenylethyl-thiazol-2-ylamine] | 24 | 143 to 144 | 75.8 |  |  |  |  |  | 
2 | Cc1sc(NC(=O)c2cc(O)c(O)c(O)c2)nc1-c1ccc(O)cc1 [Example 55, 3,4,5-trihydroxy-N-[4-(4-hydroxy-phenyl)-5-methyl-thiazol-2-yl]-benzamide] | 10.7 | 262 to 263 | 85.9 |  |  |  |  |  | 
3 | COc1ccc(-c2nc(N)sc2Cc2ccc(F)cc2)cc1 [Example 21, 5-(4-fluoro-benzyl)-4-(4-methoxy-phenyl)-thiazol-2-ylamine] | 11.5 | 199 to 201 | 52.8 |  |  |  |  |  | 
4 | O=C(Nc1nc(-c2ccc(O)cc2)c(Cc2ccccc2)s1)c1ccc(O)c(O)c1 [Example 19, N-[5-benzyl-4-(4-hydroxy-phenyl)-thiazol-2-yl]-3,4-dihydroxy-benzamide] | 79.8 | 240 to 241 | 19.4 |  | 4.15 |  |  |  | 
5 | CC(C)(C)C(=O)Nc1ccccc1SSc1ccccc1NC(=O)C(C)(C)C [N-{2-[2-(2,2-dimethyl-propanamido)-phenyldithio]-phenyl}-2,2-dimethyl-propanamide] |  |  |  |  |  |  |  | 4.82 | 4.89
6 | COc1ccc(-c2nc(N3CCNCC3)sc2Cc2ccccc2)cc1.Cl.Cl.Cl [Example 72, 1-[5-benzyl-4-(4-methoxy-phenyl)-thiazol-2-yl]-piperazine trihydrochloride] |  | 111 to 112 | 74.5 |  |  | 100 |  |  | 
7 | O=C(Nc1nc(-c2ccc(O)cc2)c(Cc2ccc([N+](=O)[O-])cc2)s1)c1ccc(O)c(O)c1 [Example 34, 3,4-dihydroxy-N-[4-(4-hydroxy-phenyl)-5-(4-nitro-benzyl)-thiazol-2-yl]-benzamide] | 67.6 | 195 to 196 | 30.4 |  | 4.00 |  |  |  | 
8 | CCCCc1sc(NC(=O)c2ccc(O)c(O)c2)nc1-c1ccc(O)cc1 [Example 65, N-[5-n-butyl-4-(4-hydroxy-phenyl)-thiazol-2-yl]-3,4-dihydroxy-benzamide] | 93.4 | 189 to 190 | 0 |  | 4.12 |  |  |  | 
9 | Cc1sc(NC(=O)c2ccc(O)c(O)c2)nc1-c1ccc(O)cc1 [Example 56, 3,4-dihydroxy-N-[4-(4-hydroxy-phenyl)-5-methyl-thiazol-2-yl]-benzamide] | 71.9 |  | 58.7 |  | 4.12 |  |  |  | 
10 | O=C(Nc1nc(-c2ccc(O)cc2)c(CCc2ccccc2)s1)c1ccc(O)c(O)c1 [Example 60, 3,4-dihydroxy-N-[4-(4-hydroxy-phenyl)-5-phenylethyl-thiazol-2-yl]-benzamide] | 97 | 208 to 209 | 0 |  | 4.46 |  |  |  | 
11 | O=C(Nc1nc(-c2ccc(O)cc2)c(Cc2ccccc2)s1)c1cc(O)c(O)c(O)c1 [Example 41, N-[5-benzyl-4-(4-hydroxy-phenyl)-thiazol-2-yl]-3,4,5-trihydroxy-benzamide] |  | 245 to 246 | 44.1 | 89.4 | 4.82 |  |  |  | 
12 | O=C(Nc1nc(-c2ccc(F)cc2)c(Cc2ccc([N+](=O)[O-])cc2)s1)c1ccc(O)c(O)c1 [Example 31, N-[4-(4-fluoro-phenyl)-5-(4-nitro-benzyl)-thiazol-2-yl]-3,4-dihydroxy-benzamide] | 100 | 276 to 278 | 0 |  | 4.12 |  |  |  | 

The next lines start with results.

Row | inhibition at 250 µM (PLTP [1]) [%] | melting point [°C] | inhibition at 500 µM (CETP [2]) [%] | inhibition at 150 µM (PLTP [1]) [%] | pIC50 (PLTP [1]) | inhibition at 500 µM (PLTP [1]) [%] | pIC50 (CETP [2]) | Compound | pKi (PLTP [3]) | pKi (CETP [4])
13 |  | 217 to 219 | 88 | 11.5 |  |  |  | O=C(Nc1nc(-c2ccc(O)cc2)c(Cc2ccccc2)s1)c1ccc(O)cc1O [Example 38, N-[5-benzyl-4-(4-hydroxy-phenyl)-thiazol-2-yl]-2,4-dihydroxy-benzamide] |  | 
14 | 100 | 119 to 120 | 27.3 |  | 4.12 |  |  | CCCCc1sc(NC(=O)c2cc(O)c(O)c(O)c2)nc1-c1ccc(O)cc1 [Example 66, N-[5-n-butyl-4-(4-hydroxy-phenyl)-thiazol-2-yl]-3,4,5-trihydroxy-benzamide] |  | 
15 |  | 124 to 125 | 71.6 | 0 |  |  |  | COc1ccc(C(=O)Nc2nc(-c3ccc(O)cc3)c(Cc3ccccc3)s2)cc1 [Example 40, N-[5-benzyl-4-(4-hydroxy-phenyl)-thiazol-2-yl]-4-methoxy-benzamide] |  | 
16 |  | 118 to 119 | 79.8 | 0 |  |  |  | COc1ccc(-c2nc(N)sc2CC2CCCCC2)cc1 [Example 47, 5-cyclohexylmethyl-4-(4-methoxy-phenyl)-thiazol-2-ylamine] |  | 
17 | 100 | 238 to 239 | 20.9 |  | 4.74 |  |  | O=C(Nc1nc(-c2ccc(O)cc2)c(CC2CCCCC2)s1)c1cc(O)c(O)c(O)c1 [Example 51, N-[5-cyclohexylmethyl-4-(4-hydroxy-phenyl)-thiazol-2-yl]-3,4,5-trihydroxy-benzamide] |  | 
18 | 15.3 | 118 to 119 | 65.4 |  |  |  |  | CCCCc1sc(N)nc1-c1ccc(OC)cc1 [Example 62, 4-(4-methoxy-phenyl)-5-n-butyl-thiazol-2-ylamine] |  | 
19 |  | 94 to 95 | 25.3 | 75.7 | 4.12 |  |  | O=C(CCc1ccc(O)c(O)c1)Nc1nc(-c2ccc(O)cc2)c(Cc2ccccc2)s1 [Example 69, N-[5-benzyl-4-(4-hydroxy-phenyl)-thiazol-2-yl]-3-(3,4-dihydroxy-phenyl)-propanamide] |  | 
20 |  | 109 to 110 | 80.4 | 0 |  |  |  | O=C(Nc1nc(-c2ccc(O)cc2)c(Cc2ccccc2)s1)c1ccc(Cl)cc1 [Example 8, N-[5-benzyl-4-(4-hydroxy-phenyl)-thiazol-2-yl]-4-chloro-benzamide] |  | 
21 | 73.2 | 154 to 155 | 9.2 |  | 4.00 |  |  | O=C(Nc1nc(-c2ccc(O)cc2)c(Cc2ccc(F)cc2)s1)c1ccc(O)c(O)c1 [Example 33, N-[5-(4-fluoro-benzyl)-4-(4-hydroxy-phenyl)-thiazol-2-yl]-3,4-dihydroxy-benzamide] |  | 
22 |  | 133 to 134 | 6 | 81.6 | 4.46 |  |  | O=C(Nc1nc(-c2ccc(O)cc2)c(CC2CCCCC2)s1)c1ccc(O)c(O)c1 [Example 49, N-[5-cyclohexylmethyl-4-(4-hydroxy-phenyl)-thiazol-2-yl]-3,4-dihydroxy-benzamide] |  | 
23 |  | 88 to 89 | 91.6 |  |  | 61 | 4.12 | COc1ccc(-c2nc(N3CCOCC3)sc2Cc2ccccc2)cc1 [Example 70, 4-[5-benzyl-4-(4-methoxy-phenyl)-thiazol-2-yl]-morpholine] |  | 
